Columns and labels:
[1] = target: T1, Inhibitor of nuclear factor kappa-B kinase subunit beta (Homo sapiens) (UniProt O14920); assay: Inhibition of human N-terminal His-tagged IKKbeta (1 to 662 residues) expressed in baculovirus expression system using fluorescence labelled modified IKBalpha derived peptide substrate at 50 times IC50 by electrophoretic mobility shift assay relative to control
T1 sequence (whole entry): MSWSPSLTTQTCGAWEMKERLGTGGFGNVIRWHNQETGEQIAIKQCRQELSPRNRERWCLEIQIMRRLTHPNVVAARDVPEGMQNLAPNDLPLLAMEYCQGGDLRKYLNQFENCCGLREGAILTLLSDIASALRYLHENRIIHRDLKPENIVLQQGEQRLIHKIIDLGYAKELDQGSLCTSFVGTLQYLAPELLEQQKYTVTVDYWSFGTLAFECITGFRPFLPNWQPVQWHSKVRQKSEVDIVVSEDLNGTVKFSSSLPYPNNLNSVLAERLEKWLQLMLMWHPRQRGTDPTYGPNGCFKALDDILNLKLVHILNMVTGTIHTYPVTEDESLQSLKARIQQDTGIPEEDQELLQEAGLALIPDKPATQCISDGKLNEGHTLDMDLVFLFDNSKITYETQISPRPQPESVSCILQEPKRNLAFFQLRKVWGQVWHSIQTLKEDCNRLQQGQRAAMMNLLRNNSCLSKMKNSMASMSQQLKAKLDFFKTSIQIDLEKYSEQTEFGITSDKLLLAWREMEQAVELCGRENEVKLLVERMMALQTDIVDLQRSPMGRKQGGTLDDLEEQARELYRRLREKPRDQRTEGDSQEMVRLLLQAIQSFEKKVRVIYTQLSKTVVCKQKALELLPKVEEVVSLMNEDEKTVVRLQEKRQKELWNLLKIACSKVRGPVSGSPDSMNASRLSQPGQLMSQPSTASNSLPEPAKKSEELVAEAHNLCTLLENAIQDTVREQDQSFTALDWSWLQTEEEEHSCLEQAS

[2] = target: Fibroblast growth factor receptor 1 (Homo sapiens) (UniProt P11362); assay: Inhibition of human N-terminal GST-tagged FGFR1 cytoplasmic domain (398 to 822 residues) expressed in baculovirus expression system using fluorescence labelled CSKtide as substrate at 50 times IC50 by electrophoretic mobility shift assay relative to control
Fibroblast growth factor receptor 1 (Homo sapiens), sequence (P11362 22-822 limits assumed): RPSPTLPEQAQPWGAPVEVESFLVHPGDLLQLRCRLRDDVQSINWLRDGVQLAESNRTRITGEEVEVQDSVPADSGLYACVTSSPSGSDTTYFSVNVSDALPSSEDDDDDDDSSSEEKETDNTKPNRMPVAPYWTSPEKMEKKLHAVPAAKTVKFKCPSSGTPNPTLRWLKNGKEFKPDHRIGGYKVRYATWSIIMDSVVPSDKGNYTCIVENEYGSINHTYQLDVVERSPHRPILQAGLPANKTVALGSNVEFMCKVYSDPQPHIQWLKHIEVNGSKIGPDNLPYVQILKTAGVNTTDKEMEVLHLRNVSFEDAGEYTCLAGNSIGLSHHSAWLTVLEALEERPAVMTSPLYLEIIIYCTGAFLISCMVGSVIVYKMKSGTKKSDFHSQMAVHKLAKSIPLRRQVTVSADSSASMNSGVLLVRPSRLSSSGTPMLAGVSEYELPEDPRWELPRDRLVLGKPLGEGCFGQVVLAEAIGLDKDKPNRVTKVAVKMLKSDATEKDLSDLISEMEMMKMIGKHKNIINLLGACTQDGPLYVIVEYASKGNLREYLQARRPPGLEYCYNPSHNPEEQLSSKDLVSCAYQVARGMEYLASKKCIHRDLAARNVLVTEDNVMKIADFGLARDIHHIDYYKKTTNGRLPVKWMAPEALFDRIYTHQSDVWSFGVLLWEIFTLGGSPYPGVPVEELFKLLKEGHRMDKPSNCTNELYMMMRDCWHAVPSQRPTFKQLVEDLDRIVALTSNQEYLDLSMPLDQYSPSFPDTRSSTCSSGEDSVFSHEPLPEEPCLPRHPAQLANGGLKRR

[3] = target: T2, Receptor-type tyrosine-protein kinase FLT3 (Homo sapiens, UniProt P36888); assay: Inhibition of human N-terminal GST-tagged FLT3 cytoplasmic domain (564 to 993 residues) expressed in baculovirus expression system using 5-FAM-peptide 2 as substrate after 2 hrs by electrophoretic mobility shift assay in presence of ATP
T2 sequence (P36888 whole entry): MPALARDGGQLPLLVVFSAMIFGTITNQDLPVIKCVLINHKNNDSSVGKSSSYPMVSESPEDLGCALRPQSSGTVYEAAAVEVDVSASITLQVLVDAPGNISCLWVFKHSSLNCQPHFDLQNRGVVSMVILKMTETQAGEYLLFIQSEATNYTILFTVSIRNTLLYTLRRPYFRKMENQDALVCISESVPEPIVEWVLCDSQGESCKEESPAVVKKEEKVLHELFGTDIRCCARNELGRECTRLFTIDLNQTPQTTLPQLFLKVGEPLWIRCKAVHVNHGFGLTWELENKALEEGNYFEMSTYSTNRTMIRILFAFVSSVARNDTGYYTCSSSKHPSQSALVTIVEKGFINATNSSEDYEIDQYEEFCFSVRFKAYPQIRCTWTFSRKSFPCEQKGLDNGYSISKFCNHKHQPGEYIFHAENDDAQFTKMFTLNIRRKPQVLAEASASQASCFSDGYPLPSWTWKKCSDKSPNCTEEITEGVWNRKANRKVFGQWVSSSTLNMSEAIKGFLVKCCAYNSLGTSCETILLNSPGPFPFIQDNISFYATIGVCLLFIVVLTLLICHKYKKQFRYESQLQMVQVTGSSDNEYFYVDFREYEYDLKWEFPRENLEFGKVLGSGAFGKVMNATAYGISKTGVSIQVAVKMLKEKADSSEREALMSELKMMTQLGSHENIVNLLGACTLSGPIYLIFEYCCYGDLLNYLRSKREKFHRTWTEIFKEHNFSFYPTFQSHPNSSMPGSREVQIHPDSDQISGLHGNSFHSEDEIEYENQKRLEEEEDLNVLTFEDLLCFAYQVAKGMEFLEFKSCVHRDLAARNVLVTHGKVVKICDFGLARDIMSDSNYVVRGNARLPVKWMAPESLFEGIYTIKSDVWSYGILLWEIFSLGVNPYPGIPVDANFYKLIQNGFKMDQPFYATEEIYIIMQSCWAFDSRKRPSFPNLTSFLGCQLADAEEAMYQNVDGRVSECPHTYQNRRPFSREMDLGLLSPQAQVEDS

[4] = target: T2, Receptor-type tyrosine-protein kinase FLT3; assay: Inhibition of human N-terminal GST-tagged FLT3 cytoplasmic domain (564 to 993 residues) expressed in baculovirus expression system using fluorescence labelled srctide as substrate by mobility shift assay in presence of ATP
[5] = target: Tyrosine-protein kinase CSK (Homo sapiens) (UniProt P41240); assay: Inhibition of full length human N-terminal GST-tagged CSK (1 to 450 residues) expressed in baculovirus expression system using fluorescence labelled srctide as substrate at 50 times IC50 by electrophoretic mobility shift assay relative to control
Tyrosine-protein kinase CSK (Homo sapiens), sequence (P41240 2-450 limits assumed): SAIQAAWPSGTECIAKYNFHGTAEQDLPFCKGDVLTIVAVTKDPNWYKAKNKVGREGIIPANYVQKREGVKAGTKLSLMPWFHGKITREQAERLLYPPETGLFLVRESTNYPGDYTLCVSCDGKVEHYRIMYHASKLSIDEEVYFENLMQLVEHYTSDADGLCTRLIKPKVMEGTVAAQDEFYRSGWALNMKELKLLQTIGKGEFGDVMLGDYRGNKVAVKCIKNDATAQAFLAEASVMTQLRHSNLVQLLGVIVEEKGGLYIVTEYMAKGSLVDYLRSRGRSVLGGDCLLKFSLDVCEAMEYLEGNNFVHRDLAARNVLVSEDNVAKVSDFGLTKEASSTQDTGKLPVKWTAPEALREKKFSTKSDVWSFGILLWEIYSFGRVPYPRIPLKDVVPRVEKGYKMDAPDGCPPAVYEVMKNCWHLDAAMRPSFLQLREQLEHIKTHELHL

[6] = target: Insulin-like growth factor 1 receptor (Homo sapiens) (UniProt P08069); assay: Inhibition of human N-terminal GST-tagged IGF1R cytoplasmic domain (959 to 1367 residues) expressed in baculovirus expression system using fluorescence labelled IRS1 as substrate at 50 times IC50 by electrophoretic mobility shift assay relative to control
Insulin-like growth factor 1 receptor (Homo sapiens), sequence (P08069 31-736 limits assumed): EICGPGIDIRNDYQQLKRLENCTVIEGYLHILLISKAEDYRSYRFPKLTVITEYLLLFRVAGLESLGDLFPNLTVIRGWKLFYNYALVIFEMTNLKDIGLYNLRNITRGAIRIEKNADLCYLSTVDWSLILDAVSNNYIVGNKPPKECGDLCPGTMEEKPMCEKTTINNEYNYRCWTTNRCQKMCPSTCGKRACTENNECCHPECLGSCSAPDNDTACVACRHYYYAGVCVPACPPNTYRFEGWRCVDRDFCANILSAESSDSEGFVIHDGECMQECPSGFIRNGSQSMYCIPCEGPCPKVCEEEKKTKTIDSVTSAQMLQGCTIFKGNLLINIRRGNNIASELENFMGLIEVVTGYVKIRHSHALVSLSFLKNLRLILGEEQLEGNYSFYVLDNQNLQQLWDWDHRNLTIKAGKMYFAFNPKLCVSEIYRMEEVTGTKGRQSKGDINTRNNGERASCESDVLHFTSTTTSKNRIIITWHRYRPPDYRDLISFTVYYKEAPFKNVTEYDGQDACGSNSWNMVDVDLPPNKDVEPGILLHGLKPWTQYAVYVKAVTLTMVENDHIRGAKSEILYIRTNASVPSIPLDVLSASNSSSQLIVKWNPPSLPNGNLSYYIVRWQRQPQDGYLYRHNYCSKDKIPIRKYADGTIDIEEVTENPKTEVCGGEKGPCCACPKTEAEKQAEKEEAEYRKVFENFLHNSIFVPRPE
Insulin-like growth factor 1 receptor (Homo sapiens), sequence (P08069 741-1367 limits assumed): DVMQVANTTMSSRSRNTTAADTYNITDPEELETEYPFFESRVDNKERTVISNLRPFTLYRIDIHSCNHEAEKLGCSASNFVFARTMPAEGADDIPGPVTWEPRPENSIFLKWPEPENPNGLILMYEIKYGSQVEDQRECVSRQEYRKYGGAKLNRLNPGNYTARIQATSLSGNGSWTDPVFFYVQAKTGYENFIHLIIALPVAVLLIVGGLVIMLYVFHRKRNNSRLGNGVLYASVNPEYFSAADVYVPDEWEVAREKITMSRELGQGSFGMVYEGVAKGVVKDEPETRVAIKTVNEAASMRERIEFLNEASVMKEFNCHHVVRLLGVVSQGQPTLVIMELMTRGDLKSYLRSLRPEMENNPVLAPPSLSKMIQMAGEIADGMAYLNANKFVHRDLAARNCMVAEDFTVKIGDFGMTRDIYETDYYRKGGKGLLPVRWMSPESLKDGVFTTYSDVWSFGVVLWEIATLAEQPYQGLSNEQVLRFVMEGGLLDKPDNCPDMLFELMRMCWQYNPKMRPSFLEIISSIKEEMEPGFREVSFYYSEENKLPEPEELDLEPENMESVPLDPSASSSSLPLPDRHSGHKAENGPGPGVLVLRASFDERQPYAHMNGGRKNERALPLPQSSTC

[7] = target: [Pyruvate dehydrogenase (acetyl-transferring)] kinase isozyme 1, mitochondrial (Homo sapiens) (UniProt Q15118); assay: Inhibition of full length human N-terminal GST-tagged PDK1 (1 to 436 residues) expressed in baculovirus expression system using fluorescence labelled PDHKtide as substrate at 50 times IC50 by electrophoretic mobility shift assay relative to control
[8] = target: Tyrosine-protein kinase SYK (Homo sapiens) (UniProt P43405); assay: Inhibition of full length human N-terminal GST-tagged SYK (1 to 635 residues) expressed in baculovirus expression system using fluorescence labelled Blk/Lyntide as substrate at 50 times IC50 by electrophoretic mobility shift assay relative to control
[9] = target: Hepatocyte growth factor receptor (Homo sapiens) (UniProt P08581); assay: Inhibition of human N-terminal GST-tagged MET cytoplasmic domain (956 to 1390 residues) expressed in baculovirus expression system using fluorescence labelled srctide as substrate at 50 times IC50 by electrophoretic mobility shift assay relative to control
Hepatocyte growth factor receptor (Homo sapiens), sequence (P08581 whole entry, the tested form may be a part): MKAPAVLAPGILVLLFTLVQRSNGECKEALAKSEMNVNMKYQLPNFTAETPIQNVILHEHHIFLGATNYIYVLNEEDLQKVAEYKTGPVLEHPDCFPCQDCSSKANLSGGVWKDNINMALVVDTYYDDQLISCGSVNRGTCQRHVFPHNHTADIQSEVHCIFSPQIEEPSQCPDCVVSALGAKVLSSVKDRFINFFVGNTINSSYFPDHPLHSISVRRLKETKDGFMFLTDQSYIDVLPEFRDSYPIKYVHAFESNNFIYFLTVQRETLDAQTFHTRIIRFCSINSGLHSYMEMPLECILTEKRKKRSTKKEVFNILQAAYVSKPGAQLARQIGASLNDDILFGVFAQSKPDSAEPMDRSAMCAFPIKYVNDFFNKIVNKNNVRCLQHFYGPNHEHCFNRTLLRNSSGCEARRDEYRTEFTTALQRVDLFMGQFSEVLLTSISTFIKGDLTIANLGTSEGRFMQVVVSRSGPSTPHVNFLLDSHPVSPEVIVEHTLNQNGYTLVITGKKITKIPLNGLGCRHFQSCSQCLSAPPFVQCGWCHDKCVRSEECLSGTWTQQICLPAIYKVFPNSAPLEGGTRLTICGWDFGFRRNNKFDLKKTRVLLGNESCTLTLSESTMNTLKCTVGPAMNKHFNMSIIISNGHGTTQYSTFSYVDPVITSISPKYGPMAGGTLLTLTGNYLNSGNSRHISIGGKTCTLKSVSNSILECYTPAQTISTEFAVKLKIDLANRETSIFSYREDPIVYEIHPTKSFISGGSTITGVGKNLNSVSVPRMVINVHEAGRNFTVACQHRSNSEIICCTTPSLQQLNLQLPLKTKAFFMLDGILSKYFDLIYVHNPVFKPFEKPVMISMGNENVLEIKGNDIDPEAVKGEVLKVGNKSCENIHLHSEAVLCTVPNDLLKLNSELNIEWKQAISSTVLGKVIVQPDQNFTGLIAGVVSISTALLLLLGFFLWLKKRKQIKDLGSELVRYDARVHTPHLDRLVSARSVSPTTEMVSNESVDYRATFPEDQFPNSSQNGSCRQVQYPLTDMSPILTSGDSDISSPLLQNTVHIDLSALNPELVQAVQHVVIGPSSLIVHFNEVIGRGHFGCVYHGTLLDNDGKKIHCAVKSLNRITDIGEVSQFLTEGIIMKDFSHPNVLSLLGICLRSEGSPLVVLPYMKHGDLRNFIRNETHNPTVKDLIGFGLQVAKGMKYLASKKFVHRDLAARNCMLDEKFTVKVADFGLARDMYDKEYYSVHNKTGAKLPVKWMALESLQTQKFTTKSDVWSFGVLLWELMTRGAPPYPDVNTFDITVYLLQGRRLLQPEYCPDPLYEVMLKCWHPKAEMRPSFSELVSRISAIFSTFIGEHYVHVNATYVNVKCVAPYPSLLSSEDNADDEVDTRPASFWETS

Structure (SMILES)	inhibition [1] [%]	inhibition [2] [%]	IC50 [3] [nM]	IC50 [4] [nM]	inhibition [5] [%]	inhibition [6] [%]	inhibition [7] [%]	inhibition [8] [%]	inhibition [9] [%]
O=C(Nc1ccc(CN2CCN(c3ccccc3)CC2)cc1)c1n[nH]c2ccccc12	0.6	-1	10	9	-4.3	0.5	-2.8	29.7	-0.4
O=C(Nc1ccccc1)c1n[nH]c2ccccc12	0.7	17	417	350	-0.5	18.2	-2.1	73.5	4.6
O=C(Nc1ccc(C(=O)N2CCN(c3ccccc3)CC2)cc1)c1n[nH]c2ccccc12	1.3	6.3	34	23	-5	1.9	1.9	40.2	-0.6
